In patent US11072634B2, “Inhibitors of transglutaminases” (Zedira GmbH, priority 2016, dated 2021):
Like-named read-outs stand apart in the source and are kept apart here. *1 amine or outer side, *2 acyl side, *3 side chain or, on linkers, in order; H or OH if unused. Where a SMILES comes first, the peptide text is derived from it. [ ]: non-standard residue; d: D form. The star is where a group is joined. Nle(5,6-dioxo,6-NHMe) = CNC(=O)C(=O)CC[C@H](N)C(=O)O; X2 = CC(C)(C)NC(=O)C(=O)CC[C@H](N[*:1])C(=O)[*:2]; X1 = CCCCCNC(=O)C(=O)CC[C@H](N[*:1])C(=O)[*:2]; X4 = O=C(CC[C@H](N[*:1])C(=O)[*:2])C(=O)NC1CC1; Isonicotinoyl(3-COOH) = O=C(O)c1cnccc1C(=O)*; d(aIle) = CC[C@H](C)[C@@H](N)C(=O)O; Pro(4-oxo) = O=C1CN[C@H](C(=O)O)C1; Chg = N[C@H](C(=O)O)C1CCCCC1; Tle = CC(C)(C)[C@H](N)C(=O)O; X3 = Cc1nc(C(=O)*)cs1

Legend:
[1] = system: fresh citrated whole blood; assay: Thromboelastometry (ROTEM delta) in whole blood with t-PA; details: human whole blood; for reduction of maximum clot firmness (MCF) compared to control (K): 6.25-50 μM, with t-PA; for clot lysis at 60 minutes (LI60): in the presence of 0.02% t-PA
Experimental: Thromboelastometry is a visco-elastic method for the assessment of blood coagulation. In whole blood parameters like clotting time (CT), clot formation time (CFT), maximum clot firmness (MCF) and lysis index at 60 min (LI60) were obtained using the ROTEM® delta device according to the manufacturer.
Briefly, 20 μL star-TEM® (0.2 mol/l CaCl2), 20 μL r ex-TEM® (recombinant tissue factor, phospholipids, heparin inhibitor), 10 μL inhibitor stock solution (1.8-0.23 mM), combined with 10 μL t-PA stock solution (0.72 μg/ml) to yield concentrations of 0.9-0.11 mM in 18% DMSO/PBS with 0.36 μg/ml t-PA and 300 μL fresh citrated whole blood (human, from healthy consenting donors) were mixed in a disposable cuvette. As control the inhibitor stock solution was replaced by 36% DMSO/0.36 μg/ml t-PA in PBS.

[2] = biological target: T1, recombinant human factor XIII A-subunit (rhFXIII-A, plasma transglutaminase) (Homo sapiens, UniProt P00488); assay: Inhibition of rec. human coagulation factor XIII (fluorescence, Abz-NE(CAD-DNP)EQVSPLILLK-OH); type: biochemical
T1 construct: His6; purchased Zedira 1027 (so in the source); T027)
T1 sequence (P00488 39-732 limits assumed): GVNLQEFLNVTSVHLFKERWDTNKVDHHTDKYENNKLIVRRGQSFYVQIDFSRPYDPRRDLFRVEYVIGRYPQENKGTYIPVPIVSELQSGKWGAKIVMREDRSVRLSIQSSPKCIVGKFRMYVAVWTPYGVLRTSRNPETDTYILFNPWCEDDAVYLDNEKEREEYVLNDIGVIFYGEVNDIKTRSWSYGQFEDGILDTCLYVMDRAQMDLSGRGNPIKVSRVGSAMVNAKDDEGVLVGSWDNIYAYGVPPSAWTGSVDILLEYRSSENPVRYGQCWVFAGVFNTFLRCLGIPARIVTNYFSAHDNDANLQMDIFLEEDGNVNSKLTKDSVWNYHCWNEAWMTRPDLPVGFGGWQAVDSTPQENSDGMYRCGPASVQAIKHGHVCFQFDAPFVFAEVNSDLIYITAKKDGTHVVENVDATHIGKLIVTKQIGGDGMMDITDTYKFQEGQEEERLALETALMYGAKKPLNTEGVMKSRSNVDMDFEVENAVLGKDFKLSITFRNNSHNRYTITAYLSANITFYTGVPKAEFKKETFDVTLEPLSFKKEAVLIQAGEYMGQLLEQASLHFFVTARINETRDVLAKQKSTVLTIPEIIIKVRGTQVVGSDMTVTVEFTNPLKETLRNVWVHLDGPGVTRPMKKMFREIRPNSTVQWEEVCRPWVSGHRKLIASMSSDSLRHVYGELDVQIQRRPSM
Experimental: Method for Inhibition Studies of Rec. Human Coagulation Factor XIII (Plasma Transglutaminase, rhFXIII-A)
(§1) 50 μg lyophilized His-tagged recombinant human factor XIII A-subunit (His6-rhFXIII, Zedira product 1027) is reconstituted in H2O (volume depends on original volume before lyophilization) resulting in a buffer containing 20 mM Tris-HCl, 150 mM NaCl, 1 mM EDTA, 1 mM DTT, 189 mg/ml maltodextrin, pH=7.5. The rhFXIII stock solution is diluted in buffer (50 mM Tris-HCl, 7.5 mM CaCl2, 150 mM NaCl, pH=7.4) to give a working solution of 59 U/ml (based on the amine-incorporation activity measured using transglutaminase activity assay #1036 (Zedira GmbH), described below).
(§2) A 10 mM inhibitor stock solution is prepared in DMSO, and from this a serial 1:2-fold dilution series is prepared also in DMSO. Each of the initial dilutions is subsequently diluted 1:50-fold with buffer (50 mM Tris-HCl, 7.5 mM CaCl2, 150 mM NaCl, pH=7.4) to yield the final working dilutions containing 2% (v/v) DMSO.
(§3) 15 μl of inhibitor working dilution are added per well of a 96 well microtiter plate. As control, 15 μl of a 2% (v/v) DMSO solution prepared using the buffer mentioned above are added per well.
(§4) 480 μl of His6-rhFXIII working solution and 120 μl human alpha thrombin (0.5 NIH units/μl) are added to 10.8 ml assay buffer (50 mM Tris-HCl, 7.5 mM CaCl2, 150 mM NaCl, 5 mM DTT, 13.4 mM glycine methylester, 50 μM Abz-NE(CAD-DNP)EQVSPLILLK-OH, (Zedira product A101; patent No.: EP 1781807B1), pH=7.4). From this master-mix solution, 285 μl are added per well containing the inhibitor. Increase in fluorescence is measured using […] and λem=418 nm at 37° C. for 35 min. A slope of the increase in fluorescence between 20 and 30 min is calculated for determination of the IC50 value (inhibitor concentration at which 50% of the initial FXIII activity is blocked).
(§5) Analysis of enzymatic activity is performed by calculation of the slope of an increase in fluorescence intensity. IC50 values are calculated by plotting the enzymatic activity (as percentage from control containing 2% DMSO instead of inhibitor) against the inhibitor concentration. IC50 is defined as the inhibitor concentration blocking 50%) of initial enzyme activity.

[3] = biological target: T2, TG2 (Homo sapiens, UniProt P21980); assay: FXIII assay format using TG2 instead of FXIII (selectivity of FXIIIa blockers); type: biochemical
T2 sequence (P21980 1-687): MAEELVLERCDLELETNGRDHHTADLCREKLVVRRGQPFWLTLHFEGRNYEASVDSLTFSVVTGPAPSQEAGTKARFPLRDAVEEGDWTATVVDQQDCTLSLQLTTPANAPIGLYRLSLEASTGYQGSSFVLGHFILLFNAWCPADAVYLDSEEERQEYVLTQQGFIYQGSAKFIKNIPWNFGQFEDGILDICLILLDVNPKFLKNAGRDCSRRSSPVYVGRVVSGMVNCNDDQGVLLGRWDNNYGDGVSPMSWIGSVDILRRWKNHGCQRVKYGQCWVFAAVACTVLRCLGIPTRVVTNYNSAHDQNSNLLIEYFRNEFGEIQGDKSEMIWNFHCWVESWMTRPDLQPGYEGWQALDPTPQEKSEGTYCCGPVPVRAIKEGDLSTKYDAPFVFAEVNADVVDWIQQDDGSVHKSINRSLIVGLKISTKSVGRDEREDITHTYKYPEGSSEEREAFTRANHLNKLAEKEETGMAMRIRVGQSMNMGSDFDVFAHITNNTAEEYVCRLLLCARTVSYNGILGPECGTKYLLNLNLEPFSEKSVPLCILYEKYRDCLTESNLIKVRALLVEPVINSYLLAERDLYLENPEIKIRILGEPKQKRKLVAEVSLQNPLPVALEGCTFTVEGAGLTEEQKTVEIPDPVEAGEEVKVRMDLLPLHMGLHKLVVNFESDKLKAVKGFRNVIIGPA
Experimental: as §1, §2, §3, §4
This assay was also used to determine selectivity of inhibitors preferentially blocking FXIIIa by using TG2 instead of FXIII.
as §5

[4] = Table 3, FXIII inhibitors, read-out: IC50 FXIII
[5] = Table 3, selectivity with respect to TG2, read-out: IC50 TG2

Row | Structure (SMILES) | reduction of maximum clot firmness (MCF) compared to control (K) [1] | clot lysis at 60 minutes (LI60) [1] | IC50 [2, 4] [nM] | IC50 [3, 5] [nM] | IC50 [2] [nM] | IC50 [3] [nM]
1 | CNC(=O)C(=O)CC[C@H](NC(=O)c1ccncc1C(=O)O)C(=O)N[C@H](C(=O)N1CC(=O)C[C@H]1C(=O)N[C@H](C(=O)N[C@H](C(N)=O)C1CCCCC1)C1CCCCC1)C(C)(C)C [Compound E25, 4-((S)-1-((S)-1-((S)-2-((S)-2-((S)-2-amino-1-cyclonexyl-2-oxoethylamino)-1-cyclonexyl-2-oxoethylcarbamoyl)-4-oxopyrrolidin-1-yl)-3,3-dimethyl-1-oxobutan-2-ylamino)-6-(methylamino)-1,5,6-trioxohexan-2-ylcarbamoyl)nicotinic acid] ({Isonicotinoyl(3-COOH)}-[Nle(5,6-dioxo,6-NHMe)][Tle][Pro(4-oxo)][Chg][Chg]-NH2) | dose dependent influence | dose dependent influence | 50 | 5500 | – | –
2 | CCCCCNC(=O)C(=O)CC[C@H](NC(=O)c1ccncc1C(=O)O)C(=O)N[C@H](C(=O)N1CC(=O)C[C@H]1C(=O)N[C@H](C(=O)N[C@H](C(N)=O)C1CCCCC1)C1CCCCC1)C(C)(C)C [Compound E27, 4-((S)-1-((S)-1-((S)-2-((S)-2-((S)-2-amino-1-cyclohexyl-2-oxoethylamino)-1-cyclohexyl-2-oxoethylcarbamoyl)-4-oxopyrrolidin-1-yl)-3,3-dimethyl-1-oxobutan-2-ylamino)-6-1,5,6-trioxo-6-(pentylamino)hexan-2-ylcarbamoyl)nicotinic acid] ({Isonicotinoyl(3-COOH)}-[X1][Tle][Pro(4-oxo)][Chg][Chg]-NH2) | dose dependent influence | dose dependent influence | 60 | 7800 | – | –
3 | Cc1nc(C(=O)N[C@@H](CCC(=O)C(=O)NC2CC2)C(=O)N[C@H](C(=O)N2CC(=O)C[C@H]2C(=O)N[C@H](C(=O)N[C@H](C(N)=O)C2CCCCC2)C2CCCCC2)C(C)(C)C)cs1 [Compound E32, (S)—N1-((S)-1-((S)-2-((S)-2-((S)-2-amino-1-cyclohexyl-2-oxoethylamino)-1-cyclohexyl-2-oxoethylcarbamoyl)-4-oxopyrrolidin-1-yl)-3,3-dimethyl-1-oxobutan-2-yl)-N6-cyclopropyl-2-(2-methylthiazole-4-carboxamido)-5-oxohexanediamide] (X3-[X4][Tle][Pro(4-oxo)][Chg][Chg]-NH2) | – | – | 2650 | 1000 | – | –
4 | CC(C)(C)NC(=O)C(=O)CC[C@H](NC(=O)c1ccncc1C(=O)O)C(=O)N[C@H](C(=O)N1CC(=O)C[C@H]1C(=O)N[C@H](C(=O)N[C@H](C(N)=O)C1CCCCC1)C1CCCCC1)C(C)(C)C [Compound E30, 4-((S)-1-((S)-1-((S)-2-((S)-2-((S)-2-amino-1-cyclohexyl-2-oxoethylamino)-1-cyclohexyl-2-oxoethylcarbamoyl)-4-oxopyrrolidin-1-yl)-3,3-dimethyl-1-oxobutan-2-ylamino)-6-(tert-butylamino)-1,5,6-trioxohexan-2-ylcarbamoyl)nicotinic acid] ({Isonicotinoyl(3-COOH)}-[X2][Tle][Pro(4-oxo)][Chg][Chg]-NH2) | – | – | 2900 | > 20000 | – | –
5 | CCCC(NC(=O)C1C2C(CN1C(=O)C(CC1CC1)NC(=O)C(CCC(=O)C(N)=O)NC(=O)c1cc(C(=O)O)cc([N+](=O)[O-])c1)C2(C)C)C(=O)N1CCCC1(C)C(=O)NC(C)COc1c(C)cccc1C [Compound E10, 3-((2S)-6-amino-1-((2S)-3-cyclopropyl-1-((1R,2S)-2-((2S)-1-((2S)-2-(1-(2,6-dimethylphenoxy)propan-2-ylcarbamoyl)-2-methylpyrrolidin-1-yl)-1-oxopentan-2-ylcarbamoyl)-6,6-dimethyl-3-azabicyclo[3.1.0]hexan-3-yl)-1-oxopropan-2-ylamino)-1,5,6-trioxonexan-2-ylcarbamoyl)-5-nitrobenzoic acid] | – | – | – | – | 150 | 100
6 | CC(C)(C)[C@H](NC(=O)[C@H](CCC(=O)C(N)=O)NC(=O)c1cnc(O)c([N+](=O)[O-])c1)C(=O)N1CCCCC1C(=O)N[C@H](C(=O)N[C@H](C(N)=O)C1CCCCC1)C1CCCCC1 (stereo in doubt) [Compound E09, (S)—N1-((S)-1-((R)-2-((S)-2-((S)-2-amino-1-cyclohexyl-2-oxoethylamino)-1-cyclohexyl-2-oxoethylcarbamoyl)piperidin-1-yl)-3,3-dimethyl-1-oxobutan-2-yl)-2-(6-hydroxy-5-nitronicotinamido)-5-oxohexanediamide] | – | – | – | – | 150 | 100
7 | CC[C@H](C)[C@@H](NC(=O)[C@H](CC(C)C)NC(=O)[C@H](CCC(=O)C(=O)NC1CC1)NC(=O)c1csc(C)n1)C(=O)N[C@@H](CC(C)C)C(=O)N1CCC[C@H]1C(=O)N[C@@H](Cc1c[nH]c2ccccc12)C(=O)N1CCC[C@H]1C(N)=O [Compound E33, (S)—N1-((S)-1-((2R,3S)-1-((S)-1-((S)-2-((S)-1-((S)-2-carbamoylpyrrolidin-1-yl)-3-(1H-indol-3-yl)-1-oxopropan-2-ylcarbamoyl)pyrrolidin-1-yl)-4-methyl-1-oxopentan-2-ylamino)-3-methyl-1-oxopentan-2-ylamino)-4-methyl-1-oxopentan-2-yl)-N6-cyclopropyl-2-(2-methylthiazole-4-carboxamido)-5-oxohexanediamide] (X3-[X4]L[d(aIle)]LPWP-NH2) | – | – | 16000 | 11500 | – | –
